Test: Accelerated stability of hydrogen peroxide premixes with different self-indicators under 40° C.
Format: physicochemical
Conditions: approximately 13 weeks
Protocol: The hydrogen peroxide premixes were prepared according to Table 10 with differing types of FD&C dyes. The compositions were stored in a 40° C. oven for approximately 13 weeks. Their stability, as evaluated by the presence of hydrogen peroxide, was compared and is depicted in Table 11.

O=S(=O)([O-])c1ccc(N=Nc2c(O)ccc3cc(S(=O)(=O)[O-])ccc23)cc1.[Na+].[Na+] [FD&C yellow 6]
stability of dye in hydrogen peroxide premix: significantly more stable than FD&C yellow 5
